Results on eight molecules are retold here after PMC12216609, “Inhibitors of eIF1A-ribosome interaction unveil uORF-dependent regulation of translation initiation and antitumor and antiviral effects” (The EMBO Journal, 2025).

Like-named read-outs stand apart in the source and are kept apart here.

For one test, the target named is T1, RPS10 (Homo sapiens, UniProt P46783).
T1 construct: made in house; host or cells: E. coli BL-21
The class given is binding.

Test [1] concerns cap-proximal AUG GFP reporter in HEK293T cells. The class given is cell-based. As to conditions: GFP WB densitometry; 20 µM overnight; dmso 0.965946. The source says: Translation from an AUG preceded by a very short 5'UTR (less than 30 nt) is usually inefficient and frequently bypassed, resulting in initiation from a downstream AUG, a phenomenon known as leaky scanning. […] To examine the impact of 1Ais on short 5'UTR initiation, we used a GFP reporter gene containing an AUG located 16 nt downstream from the 5' end followed by a second in-frame downstream AUG (Fig. 1F; Appendix Fig. S1B). Cells were transfected with this GFP reporter gene followed by exposure to DMSO (vehicle) and 1Ais. Initiations from upstream (US) or downstream (DS) AUGs were determined by western blot (WB) with anti-GFP antibodies and the ratio between the US and DS AUG was determined.
For the analysis of translation from very short 5'UTR and Leaky scanning, HEK293T cells were transfected with a GFP (20 ng/well) reporter gene driven by a cap-proximal and downstream AUGs (Elfakess et al, [2011]) together with a luciferase reporter gene (100 ng/well) as normalizing control and treated with 20 µM of 1Ais as described above. GFP levels were determined by Western blot (WB) (GFP antibody, Abcam #ab290) and quantified by densitometry (ImageJ) and normalized to the measured luciferase activity.
HEK293T cells were transfected with the GFP reporter gene schematically shown on the top. The first
AUG is […] from the 5’ end and the downstream AUG is in the same frame. Six hours after transfection, cells were treated with 1Ais. After overnight exposure to 1Ais, GFP expression was analyzed by WB using anti -GFP antibodies.
US/DS ratio was determined by densitometry and represents the long protein expression (upstream AUG, US) vs the […]
biological replicates. (C-D) Analysis of reporter genes mRNA levels after 1Ais treatment.

[2] abbreviates: read-out: IC50 (line under RPS10 binding data).
[3] abbreviates: summary table, fluorescence binding assay, read-out: IC50 concentration (µM), RPS10.
Setting [4] is: summary table, fluorescence binding assay.

Regarding `C=CCNC(=O)CN1CCN(Cc2nc3cc(-c4ccc(Cl)cc4)sc3c(=O)[nH]2)CC1` [1Ai-1524], the “RPS10 fluorescence ratio to control” value at RPS10 (1Ai conc. 0.25 uM) was determined as 1.173; at RPS10 (1Ai conc. 0.5 uM) it was 1.067; at RPS10 (1Ai conc. 1 uM) it was 0.76; at RPS10 (1Ai conc. 2 uM) it was 0.8336; on RPS10 (1Ai conc. 4 uM) it was 0.607; on RPS10 (1Ai conc. 8 uM), 0.7612. Also, the “RPS10 fluorescence ratio to control” value on RPS10 (1Ai conc. 16 uM) stood at 0.4083; at RPS10 (1Ai conc. 32 uM) it was 0.3654; at RPS10 (1Ai conc. 64 uM), 0.4197; at RPS10 (1Ai conc. 256 uM), 0.05131. Moreover, the IC50 on RPS10 (setting [2]), on RPS10 (read-out: RPS10 IC50) and at RPS10 (setting [3]) was 16.8 µM throughout. In addition, in test [1], the “US/DS ratio, average” value was 0.7201.

Turning to `CCOC(=O)c1ccsc1NC(=O)CN1C(=O)NC(C)(c2cccc3ccccc23)C1=O` (stereo not shown) [1Ai-1861], the “RPS10 fluorescence ratio to control” value on RPS10 (1Ai conc. 0.25 uM) stood at 1; on RPS10 (1Ai conc. 0.5 uM) it was 0.8226; at RPS10 (1Ai conc. 1 uM), 0.9775; on RPS10 (1Ai conc. 2 uM), 0.7185; at RPS10 (1Ai conc. 4 uM) it was 0.4957; at RPS10 (1Ai conc. 8 uM), 0.1947. For the same molecule, the “RPS10 fluorescence ratio to control” value at RPS10 (1Ai conc. 16 uM) is 0.1506; on RPS10 (1Ai conc. 32 uM) it was 0.08052; at RPS10 (1Ai conc. 64 uM), 0.3768; at RPS10 (1Ai conc. 256 uM) it was 0.398. Moreover, the IC50 on RPS10 (setting [2]), on RPS10 (read-out: RPS10 IC50) and on RPS10 (setting [3]) was 3.7 µM in each case. Besides, the “US/DS ratio, average” value in test [1] is listed as 0.86.

`O=C(CSc1nc(-c2ccccc2)cn1-c1ccccc1)NC(=O)Nc1ccccc1` [1Ai-2383]: the “RPS10 fluorescence ratio to control” value is on record as 1.003 at RPS10 (1Ai conc. 0.25 uM); 0.5095 at RPS10 (1Ai conc. 0.5 uM); 0.4927 at RPS10 (1Ai conc. 1 uM); 0.4799 on RPS10 (1Ai conc. 2 uM); 0.3805 at RPS10 (1Ai conc. 4 uM); 0.08815 at RPS10 (1Ai conc. 8 uM). Besides, the “RPS10 fluorescence ratio to control” value on RPS10 (1Ai conc. 16 uM) turned out to be 0.2868; on RPS10 (1Ai conc. 32 uM), 0.02728; at RPS10 (1Ai conc. 64 uM), 0.2465; on RPS10 (1Ai conc. 256 uM) it was 0.3391. The IC50 at RPS10 (fluorescence binding, read-out: RPS10 IC50) stood at 0.7 µM; at RPS10 (source data Fig. 2B, read-out: IC50 (line under RPS10 binding data)), 0.66 µM; on RPS10 (setting [3]), 0.661 µM. The “US/DS ratio, average” value in test [1] was 0.4898.

On to `COc1ccc2oc(C(=O)OC(C)C(=O)Nc3sccc3C(N)=O)c(C)c2c1` (stereo not shown) [1Ai-3044], for which the “RPS10 fluorescence ratio to control” value at RPS10 (1Ai conc. 0.25 uM) is given as 1; on RPS10 (1Ai conc. 0.5 uM), 1.015; at RPS10 (1Ai conc. 2 uM) it was 1.108; at RPS10 (1Ai conc. 4 uM), 1.108; on RPS10 (1Ai conc. 8 uM) it was 1.07; at RPS10 (1Ai conc. 16 uM), 0.983. The “RPS10 fluorescence ratio to control” value amounted to 0.9928 at RPS10 (1Ai conc. 32 uM), 1.135 on RPS10 (1Ai conc. 64 uM) and 1.327 on RPS10 (1Ai conc. 256 uM). Further, the “RPS10 IC50” value on RPS10 (fluorescence binding) was “No binding”. In addition, at RPS10 (setting [4]), the “IC50 concentration (µM), RPS10” value was “No binding”. Moreover, the “US/DS ratio, average” value in test [1] is on record as 0.9145.

With `O=C(C=Cc1ccc(Cl)s1)Nc1cccc2ncccc12` [1Ai-4860], the “RPS10 fluorescence ratio to control” value was found to be 0.9517 on RPS10 (1Ai conc. 0.25 uM); 0.9517 on RPS10 (1Ai conc. 0.5 uM); 0.8947 at RPS10 (1Ai conc. 1 uM); 0.9408 at RPS10 (1Ai conc. 2 uM); 0.8788 at RPS10 (1Ai conc. 4 uM); 0.814 on RPS10 (1Ai conc. 8 uM). Further, the “RPS10 fluorescence ratio to control” value on RPS10 (1Ai conc. 16 uM) was found to be 0.7263; on RPS10 (1Ai conc. 32 uM), 0.7395; on RPS10 (1Ai conc. 64 uM) it was 0.7335; on RPS10 (1Ai conc. 256 uM), 0.5649. Besides, the “RPS10 IC50” value on RPS10 (fluorescence binding) was “No binding”. Moreover, the “IC50 concentration (µM), RPS10” value on RPS10 (setting [4]) is given as “No binding”. In addition, the “US/DS ratio, average” value in test [1] is on record as 1.03.

As for `Oc1cc(Cl)ccc1Oc1ccc(Cl)cc1Cl` [1Ai-6248], the “RPS10 fluorescence ratio to control” value worked out at 1.015 on RPS10 (1Ai conc. 0.25 uM); 0.9639 at RPS10 (1Ai conc. 0.5 uM); 0.9786 at RPS10 (1Ai conc. 1 uM); 0.9545 at RPS10 (1Ai conc. 2 uM); 0.9327 at RPS10 (1Ai conc. 4 uM); 0.7864 on RPS10 (1Ai conc. 8 uM). In addition, the “RPS10 fluorescence ratio to control” value on RPS10 (1Ai conc. 16 uM) is recorded as 0.7439; on RPS10 (1Ai conc. 32 uM) it was 0.7362; on RPS10 (1Ai conc. 64 uM) it was 0.7781; on RPS10 (1Ai conc. 256 uM), 1.057. Besides, the “RPS10 IC50” value at RPS10 (fluorescence binding) is “No binding”. Also, the “IC50 concentration (µM), RPS10” value on RPS10 (setting [4]) is “No binding”. Further, in test [1], the “US/DS ratio, average” value amounted to 1.042.

`Cn1c(=O)c2ccccc2n2c(CNC(c3ccc4c(c3)CCC4)c3cccs3)nnc12` (stereo not shown) [1Ai-7688]: the “RPS10 fluorescence ratio to control” value stood at 1.264 at RPS10 (1Ai conc. 0.25 uM); 2.089 on RPS10 (1Ai conc. 0.5 uM); 1.116 on RPS10 (1Ai conc. 1 uM); 1.353 on RPS10 (1Ai conc. 2 uM); 1.556 at RPS10 (1Ai conc. 4 uM); 0.3218 on RPS10 (1Ai conc. 8 uM). The “RPS10 fluorescence ratio to control” value at RPS10 (1Ai conc. 16 uM) is given as 0.1412; at RPS10 (1Ai conc. 32 uM), 0.0755. Moreover, the IC50 at RPS10 (setting [2]), on RPS10 (read-out: RPS10 IC50) and on RPS10 (setting [3]) was 4.5 µM each time. Further, the “US/DS ratio, average” value in test [1] is on record as 0.7504.

As for `O=S(=O)(c1ccccc1)N1CCN(C2c3ccccc3-c3ccccc32)CC1` [1Ai-9025], the IC50 on RPS10 (setting [3]) came to 4.8 µM. For the same molecule, the “US/DS ratio, average” value in test [1] came out at 0.7517.
